From patent US11464754B2, “Betaine for the prevention of obesity” (HOSPITAL SANT JOAN DE DEU, priority 2017, dated 2022)

Legend:
ICR-CD1 mice [1] = assay: Maternal betaine supplementation during lactation, lean dams: offspring growth, adiposity and metabolism on chow diet; assay type: in vivo
Procedure: (§1) All animal protocols were approved by the Institutional Animal Care and Use Committee of the University of Barcelona (Spain). Mice were housed on a 12-hour light-dark cycle with free access to food and water. Male and female ICR-CD1 mice (Envigo) were mated to obtain progeny. To minimize growth variability, litters were adjusted to 8 pups per dam at birth removing heaviest and lightest mice. Glycine betaine (1% wt/vol), ampicilin (1 g/L), and neomycin (0.5 g/L) (Sigma-Aldrich) were administered in water during lactation. After weaning, mice were housed 4 per cage and fed the 2014 Teklad diet (Envigo). For diet-induced obesity, a high-fat diet (HFD, 45% kcal from fat) was provided (D12451, Research Diets). For maternal obesity studies, 6-week-old females were fed HFD for 8 weeks before mating; this same diet was maintained through pregnancy and lactation. To assess milk intake, pups were separated from dams for 2 hours and returned to their cages for 1 hour; difference in body weight before and after the feeding was expressed as grams per initial body weight per hour. For milk harvesting, samples were collected manually under anesthesia (pentobarbital, 40 mg/kg) at day 14 after birth; dams and pups were sacrificed after milk collection, and cecal content obtained for microbiome studies. Body composition was determined by using a 7.0T Bruker Biospect MRI system (Bruker Medical Gmbh, Germany). Indirect calorimetry was measured in metabolic cages (PhenoMaster/LabMaster, TSE Systems GmbH, Germany); O2, CO2, food intake, and locomotor activity were monitored for 48 hours, and data analyzed using 2-way ANOVA for repeated measures. Intraperitoneal glucose (1.5 g/kg) and insulin (0.6 U/kg) tolerance test were performed after a 16 or 4 hour fast, respectively. Mice were anesthetized (intraperitoneal pentobarbital, 50 mg/kg) and sacrificed between 9-11 am.
(§2) Mouse milk samples were diluted 1:3 before macronutrient analysis by mid-infrared spectroscopy in a Miris Analyzer (Miris AB). Relative betaine concentrations were determined by liquid chromatography (Acquity UPLC BEH HILIC column, Waters) coupled to mass spectrometry (QqQ/MS 6490, Agilent). Plasma insulin was determined by ELISA (Millipore). Plasma MCP-1, IL-6 and PAI-1 were measured using Milliplex Map (EMD Millipore, Merck). Hepatic and fecal triglycerides were quantified in chloroform-methanol extracts from liver or feces (50 mg) using Triglyceride Assay Kit (Sigma-Aldrich).
(§3) Tissues were fixed by immersion in formalin, paraffin-embedded, and sections stained with hematoxylin/eosin. For WAT, adipocyte area was measured in 30 random microscopic fields per animal (10-20 cells/field). For ileum, cross-sectional cuts were stained with Periodic acid-Schiff (PAS) method. Ten villi per mouse from 5-6 sections were analyzed. Goblet cell number per villus was determined and expressed as number of cells per 100 μm. Analyses were performed using ImageJ by a researcher blinded to sample ID.
To study whether milk betaine modulates growth and obesity risk, we performed maternal supplementation experiments in mice exclusively during lactation. Dams were randomly assigned to control (C) or treatment (B, 1% betaine in water) groups the first day after delivery. Milk samples were collected at day 14 after birth from a subset of dams to determine betaine levels.
(§4) It was also investigated whether the above changes during early life translated into long-term metabolic improvements. Offspring was maintained on a chow diet after weaning and monitored up to 24 weeks of age. […] Consistent with lower adiposity, adipocyte size and inflammatory markers were decreased in male offspring from betaine-treated dams. […] Furthermore, basal insulin levels decreased by 40% in treatment compared to control group (p<0.05, FIG. 5D).

[2] = Betaine levels and composition of dam milk, and offspring plasma betaine, after maternal betaine supplementation during lactation; assay type: in vivo, mice
Procedure: All animal protocols were approved by the Institutional Animal Care and Use Committee of the University of Barcelona (Spain). Mice were housed on a 12-hour light-dark cycle with free access to food and water. Male and female ICR-CD1 mice (Envigo) were mated to obtain progeny. To minimize growth variability, litters were adjusted to 8 pups per dam at birth removing heaviest and lightest mice. Glycine betaine (1% wt/vol), ampicilin (1 g/L), and neomycin (0.5 g/L) (Sigma-Aldrich) were administered in water during lactation. After weaning, mice were housed 4 per cage and fed the 2014 Teklad diet (Envigo). […] To assess milk intake, pups were separated from dams for 2 hours and returned to their cages for 1 hour; difference in body weight before and after the feeding was expressed as grams per initial body weight per hour. […] Body composition was determined by using a 7.0T Bruker Biospect MRI system (Bruker Medical Gmbh, Germany). Indirect calorimetry was measured in metabolic cages (PhenoMaster/LabMaster, TSE Systems GmbH, Germany); O2, CO2, food intake, and locomotor activity were monitored for 48 hours, and data analyzed using 2-way ANOVA for repeated measures. […]
Mouse milk samples were diluted 1:3 before macronutrient analysis by mid-infrared spectroscopy in a Miris Analyzer (Miris AB). […] Plasma insulin was determined by ELISA (Millipore). […]

ICR-CD1 mice [3] = assay: Diet-induced obesity (HFD for 16 weeks) in offspring of betaine-treated dams; assay type: in vivo
Procedure: as §1, §2
It was then tested whether this early-life intervention protected against diet-induced obesity. To this end, 6-week-old offspring of lean control or betaine-treated dams were fed a HFD for 16 weeks (HF-C and HF-B groups, respectively). […] Supplementation ameliorated glucose tolerance (FIG. 6B), and decreased fasting glucose (Time 0, FIG. 6B) and insulin levels (FIG. 6C). Hepatic triglyceride accumulation was reduced by 30% in the HF-B group (p<0.05, FIG. 6D).

ICR-CD1 mice [4] = assay: Intestinal epithelium and inflammatory markers in 6-week-old offspring of betaine-treated dams; assay type: in vivo
Procedure: as §1, §2
Total RNA from tissues was isolated with TRI Reagent (Sigma-Aldrich) and cDNA obtained with High-capacity cDNA kit (Applied Biosystems). qPCR was performed with SybrGreen (Takara Bio), using Hprt as housekeeping gene. Primer sequences are the following:
as §3
These changes were accompanied by decreased mRNA levels of inflammatory markers (Ccl2, TIr4, Cd11c) in epididymal white adipose tissue (eWAT, FIG. 4B).

ICR-CD1 mice [5] = assay: Maternal betaine supplementation during lactation in mouse model of maternal obesity; assay type: in vivo
Procedure: as §1
To test whether betaine interacts with maternal obesity, betaine supplementation was performed during lactation in a mouse model of maternal obesity. Dams were fed a high-fat diet (HFD) for 8 weeks before mating, and randomly assigned to control (MO-C) or betaine treatment (MO-B) groups at delivery. Supplementation was performed as described above.
as §4

[6] = adult male offspring, chow diet

Structure (SMILES): C[N+](C)(C)CC(=O)O [betaine, glycine betaine]
- glucose tolerance (ICR-CD1 mice [1]; adult female offspring): no effect
- adipocyte size and inflammatory markers (ICR-CD1 mice [1]; [6]): decreased
- decrease of basal insulin levels (ICR-CD1 mice [1]; adult male offspring, treatment vs control group): 40%
- glucose tolerance (ICR-CD1 mice [1]; adult male offspring, week 20): notable improvement
- blood glucose at each time point in insulin tolerance testing (ICR-CD1 mice [1]; adult males): significantly lower
- response to insulin administration (ICR-CD1 mice [1]; adult males, insulin tolerance testing): no difference
- hepatic triglyceride accumulation (ICR-CD1 mice [1]; adult offspring, chow diet): no significant effect
- body weight gain and eWAT weight (ICR-CD1 mice [1]; female offspring, chow diet): no effect
- offspring growth patterns during lactation (ICR-CD1 mice [1]; lean dams, 1% betaine in water): did not modulate
- milk intake (ICR-CD1 mice [1]; lean dams, pups at 1 week of age): did not modulate
- fat mass (ICR-CD1 mice [1]; male offspring at 6 weeks of age, vs control): decreased
- eWAT weight (ICR-CD1 mice [1]; male offspring, chow diet, 24 weeks): decreased
- body weight gain throughout adulthood (ICR-CD1 mice [1]; male offspring, chow diet, up to 24 weeks of age): lower
- glucose tolerance, food intake, energy expenditure, respiratory exchange ratio, activity levels (ICR-CD1 mice [1]; young mice): did not differ
- increase of milk betaine content ([2]; dam milk at day 14 after birth, 1% betaine in water during lactation, vs control): 5 fold
- increase of offspring plasma betaine ([2]; fourteen-day-old offspring of betaine-treated dams): 1.8 fold
- reduction of hepatic triglyceride accumulation (ICR-CD1 mice [3]; HF-B group vs HF-C, male mice): 30%
- fecal lipid content (ICR-CD1 mice [3]; HFD): no differences
- cumulative food intake (ICR-CD1 mice [3]; HFD, did not reach statistical significance): modest numerical decrease
- body weight gain (ICR-CD1 mice [3]; male and female offspring on HFD, HF-B vs HF-C): lower
- insulin levels (ICR-CD1 mice [3]; male mice on HFD): decreased
- glucose tolerance (ICR-CD1 mice [3]; male mice on HFD, 18 weeks of life): ameliorated
- fasting glucose (ICR-CD1 mice [3]; male mice on HFD, Time 0): decreased
- mRNA levels of inflammatory markers (Ccl2, Tlr4, Cd11c) in eWAT (ICR-CD1 mice [4]; six-week-old male offspring): decreased
- circulating levels of IL-6 (ICR-CD1 mice [4]; six-week-old male offspring, p<0.05): decreased
- circulating levels of MCP-1 (ICR-CD1 mice [4]; six-week-old male offspring, p=0.08): numerical decrease
- circulating levels of PAI-1 (ICR-CD1 mice [4]; six-week-old male offspring, p=0.25): numerical decrease
- expression of Ccl2 in brown adipose, liver, and skeletal muscle (ICR-CD1 mice [4]; six-week-old offspring): decreased
- ileal Muc2 mRNA expression (ICR-CD1 mice [4]; six-week-old offspring): increased
- ileal villi length (ICR-CD1 mice [4]; six-week-old offspring): no differences
- increase of ileal goblet cell number (ICR-CD1 mice [4]; six-week-old offspring): 1.3 fold
- fat mass (ICR-CD1 mice [5]; 6 weeks of age, MO-B vs MO-C): trend towards lower
- milk intake (ICR-CD1 mice [5]; MO-B vs MO-C): no differences
- offspring growth during lactation (ICR-CD1 mice [5]; MO-B vs MO-C, obese dams): moderated
- basal insulin levels (ICR-CD1 mice [5]; adult male offspring): decreased
- glucose tolerance (ICR-CD1 mice [5]; adult male offspring): improved
- body weight and adiposity (ICR-CD1 mice [5]; [6]): lower
